Earlier results in US12492208B2, “Crystal of pyrimidine compound” (TAIHO PHARMACEUTICAL CO., LTD., priority 2020, dated 2025).

Experiments:
[1] = non-clinical tests; substrates of p-gp or Bcrp; cited from earlier work
brain metastatic cancer = conditions: clinical tests; cited from earlier work

Question: What does the source list for `CS(=O)(=O)CCNCc1ccc(-c2ccc3ncnc(Nc4ccc(OCc5cccc(F)c5)c(Cl)c4)c3c2)o1` [Lapatinib]?
Answer: brain penetration properties [1]: limited; effects against brain metastatic cancer (brain metastatic cancer): sufficient effects of these agents could not be obtained
